According to US10519134B2, “Pyrazole compounds and methods of making and using same” (Lundbeck La Jolla Research Center, Inc., priority 2015, dated 2019):

Assays:
MAGL = target: T1, MAGL (Mus musculus, UniProt O35678); assay: In vitro competitive activity-based protein profiling (mouse), MAGL gel band; type: biochemical; conditions: for inhibition at 1 µM: read-out: MAGL % inh. 1 μM; for IC50: mouse
T1 construct: Proteomes (mouse brain membrane fraction or cell lysates); from tissue; host or cells: mouse brain membrane fraction (or cell lysates)
T1 sequence (O35678 1-303): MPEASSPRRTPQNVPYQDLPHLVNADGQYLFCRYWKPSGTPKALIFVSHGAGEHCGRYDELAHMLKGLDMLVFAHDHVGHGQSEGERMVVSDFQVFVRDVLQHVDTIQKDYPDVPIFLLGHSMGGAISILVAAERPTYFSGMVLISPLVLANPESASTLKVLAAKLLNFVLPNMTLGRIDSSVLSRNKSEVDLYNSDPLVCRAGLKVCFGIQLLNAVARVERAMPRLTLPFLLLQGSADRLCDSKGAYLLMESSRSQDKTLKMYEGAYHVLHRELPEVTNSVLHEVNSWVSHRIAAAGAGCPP
Procedure, shortened: (§1)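 Gel-based competitive ABPP: proteome 1.0 mg/mL, inhibitor 30 min 37 °C, then FP-Rh or HT-01 probe (stock 50 μM) 30 min 37 °C; SDS quench, SDS-PAGE, in-gel fluorescence of the enzyme band quantified.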

FAAH = target: T2, FAAH (Mus musculus, UniProt O08914); assay: In vitro competitive activity-based protein profiling (mouse), FAAH gel band; type: biochemical; conditions: for inhibition at 1 µM: read-out: FAAH % inh. 1 μM; for IC50: mouse
T2 construct: Proteomes (mouse brain membrane fraction or cell lysates); from tissue; host or cells: mouse brain membrane fraction (or cell lysates)
T2 sequence (O08914 1-579): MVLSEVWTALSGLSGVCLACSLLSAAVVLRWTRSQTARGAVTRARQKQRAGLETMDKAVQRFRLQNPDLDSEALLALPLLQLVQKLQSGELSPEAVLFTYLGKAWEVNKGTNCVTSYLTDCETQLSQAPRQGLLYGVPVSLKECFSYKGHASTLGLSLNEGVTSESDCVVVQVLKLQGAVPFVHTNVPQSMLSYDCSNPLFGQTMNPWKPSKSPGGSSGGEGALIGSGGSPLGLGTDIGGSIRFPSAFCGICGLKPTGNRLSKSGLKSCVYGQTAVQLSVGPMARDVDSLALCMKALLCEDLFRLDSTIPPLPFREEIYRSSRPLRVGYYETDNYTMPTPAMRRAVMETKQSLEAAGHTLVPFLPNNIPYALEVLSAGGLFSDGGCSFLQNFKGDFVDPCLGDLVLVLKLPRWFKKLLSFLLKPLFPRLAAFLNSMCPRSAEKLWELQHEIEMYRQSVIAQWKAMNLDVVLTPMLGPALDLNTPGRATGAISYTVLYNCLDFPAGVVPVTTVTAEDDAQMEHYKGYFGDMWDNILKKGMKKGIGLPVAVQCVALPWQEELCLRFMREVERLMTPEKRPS
Procedure, shortened: as §1

Compound | inhibition at 1 µM (MAGL) | inhibition at 1 µM (FAAH) | IC50 (MAGL) | IC50 (FAAH)
CC(=O)Nc1ccn(C(=O)N2CCC3(CCCN3Cc3cc(Oc4nc5ccccc5s4)cc(C(F)(F)F)c3)CC2)n1 [Example 86, N-(1-(1-(3-(benzo[d]thiazol-2-yloxy)-5-(trifluoromethyl)benzyl)-1,8-diazaspiro[4.5]decane-8-carbonyl)-1H-pyrazol-3-yl)acetamide] | ≥ 75% | 50 to 75% | – | –
CC(=O)Nc1ccn(C(=O)N2CCC3(CCCN3Cc3ccc(C(F)(F)F)cc3N3CCN(C4CC4)CC3)CC2)n1 [Example 30, N-(1-(1-(2-(4-cyclopropylpiperazin-1-yl)-4-(trifluoromethyl)benzyl)-1,8-diazaspiro[4.5]decane-8-carbonyl)-1H-pyrazol-3-yl)acetamide] | ≥ 75% | 0 to 25% | 100 to 1000 nM | 1000 to 10000 nM
CS(=O)(=O)Nc1ccn(C(=O)N2CCC3(CCCN3Cc3ccc(Cl)cc3N3CCCCC3)CC2)n1 [Example 132, N-(1-(1-(4-chloro-2-(piperidin-1-yl)benzyl)-1,8-diazaspiro[4.5]decane-8-carbonyl)-1H-pyrazol-3-yl)methanesulfonamide] | 50 to 75% | 0 to 25% | – | –
CCN1CCN(c2cc(Cl)ccc2CN2CCN(C(=O)n3ccc(NC(C)=O)n3)CC2)CC1 [Example 59, N-(1-(4-(4-chloro-2-(4-ethylpiperazin-1-yl)benzyl)piperazine-1-carbonyl)-1H-pyrazol-3-yl)acetamide] | ≥ 75% | 0 to 25% | 100 to 1000 nM | 1000 to 10000 nM
CC(=O)N(C)c1ccn(C(=O)N2CCC3(CCCN3Cc3cc(N4CCCC4)cc(C(F)(F)F)c3)CC2)n1 [Example 66, N-methyl-N-(1-(1-(3-(pyrrolidin-1-yl)-5-(trifluoromethyl)benzyl)-1,8-diazaspiro[4.5]decane-8-carbonyl)-1H-pyrazol-3-yl)acetamide] | 50 to 75% | 0 to 25% | – | –
CS(=O)(=O)Nc1ccn(C(=O)N2CCN(Cc3ccc(C(F)(F)F)cc3N3CCCCC3)CC2)n1 [Example 129, N-(1-(4-(2-(piperidin-1-yl)-4-(trifluoromethyl)benzyl)piperazine-1-carbonyl)-1H-pyrazol-3-yl) methanesulfonamide] | ≥ 75% | 0 to 25% | ≤ 100 nM | 1000 to 10000 nM
CC(=O)Nc1ccn(C(=O)N2CCC3(CCCN3Cc3ccc(N4CCOCC4)c(Cl)c3)CC2)n1 [Example 99, N-(1-(1-(3-chloro-4-morpholinobenzyl)-1,8-diazaspiro[4.5]decane-8-carbonyl)-1H-pyrazol-3-yl)acetamide] | ≥ 75% | 0 to 25% | 100 to 1000 nM | 1000 to 10000 nM
CC(=O)Nc1ccn(C(=O)N2CCN(Cc3ccc(C(F)(F)F)cc3Oc3nc4ccccc4s3)CC2)n1 [Example 75, N-(1-(4-(2-(benzo[d]thiazol-2-yloxy)-4-(trifluoromethyl)benzyl)piperazine-1-carbonyl)-1H-pyrazol-3-yl)acetamide] | ≥ 75% | 0 to 25% | ≤ 100 nM | 1000 to 10000 nM
CC(=O)Nc1ccn(C(=O)N2CCC3(CCCN3Cc3ccc(C(F)(F)F)c(Cl)c3)CC2)n1 [Example 24, N-(1-(1-(3-chloro-4-(trifluoromethyl)benzyl)-1,8-diazaspiro[4.5]decane-8-carbonyl)-1H-pyrazol-3-yl)acetamide] | ≥ 75% | 0 to 25% | ≤ 100 nM | 1000 to 10000 nM
Cc1cc(CN2CCCC23CCN(C(=O)n2ccc(NC(=O)C(F)(F)F)n2)CC3)ccc1Cl [Example 117, N-(1-(1-(4-chloro-3-methylbenzyl)-1,8-diazaspiro[4.5]decane-8-carbonyl)-1H-pyrazol-3-yl)-2,2,2-trifluoroacetamide] | ≥ 75% | 0 to 25% | – | –

Second part, the compound after the results:

inhibition at 1 µM (MAGL) | inhibition at 1 µM (FAAH) | IC50 (MAGL) | IC50 (FAAH) | Compound
0 to 25% | 0 to 25% | – | – | CS(=O)(=O)Nc1ccn(C(=O)N2CCC3(CCCN3Cc3ccc(C(F)(F)F)cc3N3CCC(C(=O)O)C3)CC2)n1 (centres unmarked) [Example 245, 1-(2-((8-(3-(methylsulfonamido)-1H-pyrazole-1-carbonyl)-1,8-diazaspiro[4.5]decan-1-yl)methyl)-5-(trifluoromethyl)phenyl) pyrrolidine-3-carboxylic acid]
50 to 75% | 0 to 25% | – | – | CS(=O)(=O)Nc1ccn(C(=O)N2CCN(Cc3cc(N4CCOCC4)ccc3C(F)(F)F)CC2)n1 [Example 181, N-(1-(4-(5-morpholino-2-(trifluoromethyl)benzyl)piperazine-1-carbonyl)-1H-pyrazol-3-yl) methanesulfonamide]
≥ 75% | 0 to 25% | ≤ 100 nM | 1000 to 10000 nM | CC(=O)Nc1ccn(C(=O)N2CCN(Cc3ccc(C(F)(F)F)c(-c4nnn[nH]4)c3)CC2)n1 [Example 222, N-(1-(4-(3-(1H-tetrazol-5-yl)-4-(trifluoromethyl)benzyl)piperazine-1-carbonyl)-1H-pyrazol-3-yl)acetamide]
≥ 75% | 0 to 25% | – | – | CC(=O)Nc1ccn(C(=O)N2CCN(Cc3ccc(C(F)(F)F)cc3N3CCC(C(N)=O)CC3)CC2)n1 [Example 274, 1-(2-((4-(3-acetamido-1H-pyrazole-1-carbonyl)piperazin-1-yl)methyl)-5-(trifluoromethyl)phenyl)piperidine-4-carboxamide]
50 to 75% | 0 to 25% | – | – | CS(=O)(=O)Nc1ccn(C(=O)N2CCC3(CCCN3Cc3cccc(N4CCOCC4)c3Cl)CC2)n1 [Example 143, N-(1-(1-(2-chloro-3-morpholinobenzyl)-1,8-diazaspiro[4.5]decane-8-carbonyl)-1H-pyrazol-3-yl) methanesulfonamide]
≥ 75% | 0 to 25% | 100 to 1000 nM | 1000 to 10000 nM | CS(=O)(=O)Nc1ccn(C(=O)N2CCC3(CCCN3Cc3ccc(Cl)cc3N3C[C@H]4CC[C@@H](C3)O4)CC2)n1 [Example 139, N-(1-(1-(2-((1R,5S)-8-oxa-3-azabicyclo[3.2.1]octan-3-yl)-4-chlorobenzyl)-1,8-diazaspiro[4.5]decane-8-carbonyl)-1H-pyrazol-3-yl) methanesulfonamide]
0 to 25% | 0 to 25% | – | – | CS(=O)(=O)Nc1ccn(C(=O)N2CCN(Cc3ccc(N4CCC(C(=O)O)CC4)c(C(F)(F)F)c3)CC2)n1 [Example 169, 1-(4-((4-(3-(methylsulfonamido)-1H-pyrazole-1-carbonyl)piperazin-1-yl)methyl)-2-(trifluoromethyl)phenyl)piperidine-4-carboxylic acid]
≥ 75% | 0 to 25% | – | – | CS(=O)(=O)Nc1ccn(C(=O)N2CCC3(CCCN3Cc3ccc(C(F)(F)F)c(N4CCCC4)c3)CC2)n1 [Example 160, N-(1-(1-(3-(pyrrolidin-1-yl)-4-(trifluoromethyl)benzyl)-1,8-diazaspiro[4.5]decane-8-carbonyl)-1H-pyrazol-3-yl) methanesulfonamide]
≥ 75% | 0 to 25% | – | – | CC(=O)Nc1ccn(C(=O)N2CCN(Cc3ccc(C(F)(F)F)cc3N3CCC(NC(C)=O)CC3)CC2)n1 [Example 275, N-(1-(2-((4-(3-acetamido-1H-pyrazole-1-carbonyl)piperazin-1-yl)methyl)-5-(trifluoromethyl)phenyl)piperidin-4-yl)acetamide]
≥ 75% | 0 to 25% | ≤ 100 nM | 1000 to 10000 nM | CS(=O)(=O)Nc1ccn(C(=O)N2CCN(Cc3ccc(C(F)(F)F)cc3N3CCC(O)CC3)CC2)n1 [Example 252, N-(1-(4-(2-(4-hydroxypiperidin-1-yl)-4-(trifluoromethyl)benzyl)piperazine-1-carbonyl)-1H-pyrazol-3-yl) methanesulfonamide]
0 to 25% | 0 to 25% | – | – | CS(=O)(=O)Nc1ccn(C(=O)N2CCN(Cc3ccc(Cl)c(N4CCC(C(N)=O)CC4)c3)CC2)n1 [Example 249, 1-(2-chloro-5-((4-(3-(methylsulfonamido)-1H-pyrazole-1-carbonyl)piperazin-1-yl)methyl)phenyl) piperidine-4-carboxamide]
50 to 75% | 0 to 25% | – | – | CS(=O)(=O)Nc1ccn(C(=O)N2CCN(Cc3ccc(C(F)(F)F)cc3-c3nnn[nH]3)CC2)n1 [Example 259, N-(1-(4-(2-(1H-tetrazol-5-yl)-4-(trifluoromethyl)benzyl)piperazine-1-carbonyl)-1H-pyrazol-3-yl) methanesulfonamide]
